Results reported in publication PMC10408569, “Recruitment of hexahydroquinoline as anticancer scaffold targeting inhibition of wild and mutants EGFR (EGFR^WT, EGFR^T790M, and EGFR^L858R)” (Journal of Enzyme Inhibition and Medicinal Chemistry, 2023).

How the values were obtained:
EGFR^L858R = EGFR^L858R (Homo sapiens, UniProt P00533, L858R); test: biochemical
SK-MEL-28 = test: NCI-60 anticancer screening (SRB); format: cell-based; conditions: Homo sapiens; SK-MEL-28, melanoma; one dose 10 μM; read-out: Growth Inhibition Percentage (GI %)
SF-268 = test: NCI-60 anticancer screening (SRB); format: cell-based; conditions: Homo sapiens; SF-268, CNS cancer; one dose 10 μM; read-out: Growth Inhibition Percentage (GI %)
LOX IMVI = test: NCI-60 anticancer screening (SRB); format: cell-based; conditions: Homo sapiens, melanoma, one dose 10 μM, read-out: Growth Inhibition Percentage (GI %)
RPMI-8226 = test: NCI-60 anticancer screening (SRB); format: cell-based; conditions: Homo sapiens; RPMI-8226, leukemia; one dose 10 μM; read-out: Growth Inhibition Percentage (GI %)
SW-620 = test: NCI-60 anticancer screening (SRB); format: cell-based; conditions: Homo sapiens; SW-620, colon cancer; one dose 10 μM; read-out: Growth Inhibition Percentage (GI %)
SF-539 = test: NCI-60 anticancer screening (SRB); format: cell-based; conditions: Homo sapiens; SF-539, CNS cancer; one dose 10 μM; read-out: Growth Inhibition Percentage (GI %)
NCI-H460 = test: NCI-60 anticancer screening (SRB); format: cell-based; conditions: Homo sapiens; NCI-H460, NSC lung cancer; one dose 10 μM; read-out: Growth Inhibition Percentage (GI %)
RXF 393 = test: NCI-60 anticancer screening (SRB); format: cell-based; conditions: Homo sapiens; RXF 393, renal cancer; one dose 10 μM; read-out: Growth Inhibition Percentage (GI %)
HOP-92 = test: NCI-60 anticancer screening (SRB); format: cell-based; conditions: Homo sapiens; HOP-92, NSC lung cancer; one dose 10 μM; read-out: Growth Inhibition Percentage (GI %)
OVCAR-4 = test: NCI-60 anticancer screening (SRB); format: cell-based; conditions: Homo sapiens; OVCAR-4, ovarian cancer; one dose 10 μM; read-out: Growth Inhibition Percentage (GI %)
EGFR^WT = EGFR^WT (Homo sapiens, UniProt P00533); test: EGFR kinase inhibitory assay (HTRF)
EGFR^WT, sequence (P00533 25-1210): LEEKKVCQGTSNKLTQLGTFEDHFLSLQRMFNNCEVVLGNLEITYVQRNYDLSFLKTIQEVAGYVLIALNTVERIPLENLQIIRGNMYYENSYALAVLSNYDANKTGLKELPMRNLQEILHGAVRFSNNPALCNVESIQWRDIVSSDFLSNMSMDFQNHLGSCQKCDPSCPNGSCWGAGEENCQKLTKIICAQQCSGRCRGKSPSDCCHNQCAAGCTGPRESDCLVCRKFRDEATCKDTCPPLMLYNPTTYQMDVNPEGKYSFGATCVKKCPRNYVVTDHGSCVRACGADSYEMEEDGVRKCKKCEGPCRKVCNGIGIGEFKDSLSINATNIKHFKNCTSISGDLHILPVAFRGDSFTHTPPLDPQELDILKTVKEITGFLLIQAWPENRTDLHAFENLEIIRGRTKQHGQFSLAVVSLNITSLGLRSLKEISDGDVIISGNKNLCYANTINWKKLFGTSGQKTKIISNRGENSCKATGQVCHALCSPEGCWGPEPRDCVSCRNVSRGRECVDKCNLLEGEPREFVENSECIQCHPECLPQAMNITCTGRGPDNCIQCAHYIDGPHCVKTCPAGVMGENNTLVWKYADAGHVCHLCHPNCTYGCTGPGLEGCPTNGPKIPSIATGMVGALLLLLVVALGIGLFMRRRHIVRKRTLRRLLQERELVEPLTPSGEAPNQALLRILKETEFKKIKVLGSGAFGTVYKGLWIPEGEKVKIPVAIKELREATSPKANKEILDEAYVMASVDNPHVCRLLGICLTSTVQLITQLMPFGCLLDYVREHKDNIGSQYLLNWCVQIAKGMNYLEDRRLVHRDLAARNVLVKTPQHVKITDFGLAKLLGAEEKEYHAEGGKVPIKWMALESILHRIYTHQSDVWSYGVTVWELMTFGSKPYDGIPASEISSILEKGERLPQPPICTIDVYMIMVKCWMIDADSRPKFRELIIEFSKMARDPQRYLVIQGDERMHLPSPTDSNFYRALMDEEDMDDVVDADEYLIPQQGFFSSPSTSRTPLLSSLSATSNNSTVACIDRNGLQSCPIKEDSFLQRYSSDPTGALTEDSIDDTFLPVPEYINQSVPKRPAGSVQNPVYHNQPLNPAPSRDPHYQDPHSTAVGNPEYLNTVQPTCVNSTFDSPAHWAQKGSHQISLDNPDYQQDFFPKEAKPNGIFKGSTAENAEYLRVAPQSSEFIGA

SN 12C = test: NCI-60 anticancer screening (SRB); format: cell-based; conditions: Homo sapiens, SN12C; SN 12C, renal cancer; one dose 10 μM; read-out: Growth Inhibition Percentage (GI %)
HCT-116 = test: NCI-60 anticancer screening (SRB); format: cell-based; conditions: Homo sapiens; HCT-116, colon cancer; one dose 10 μM; read-out: Growth Inhibition Percentage (GI %)
CCRF-CEM = test: NCI-60 anticancer screening (SRB); format: cell-based; conditions: Homo sapiens, leukemia, one dose 10 μM, read-out: Growth Inhibition Percentage (GI %)
TK-10 = test: NCI-60 anticancer screening (SRB); format: cell-based; conditions: Homo sapiens; TK-10, renal cancer; one dose 10 μM; read-out: Growth Inhibition Percentage (GI %)
SK-MEL-5 = test: NCI-60 anticancer screening (SRB); format: cell-based; conditions: Homo sapiens; SK-MEL-5, melanoma; one dose 10 μM; read-out: Growth Inhibition Percentage (GI %)
MCF7 = test: NCI-60 anticancer screening (SRB); format: cell-based; conditions: Homo sapiens; MCF7, breast cancer; one dose 10 μM; read-out: Growth Inhibition Percentage (GI %)
SR = test: NCI-60 anticancer screening (SRB); format: cell-based; conditions: Homo sapiens, leukemia, one dose 10 μM, read-out: Growth Inhibition Percentage (GI %)
T-47D = test: NCI-60 anticancer screening (SRB); format: cell-based; conditions: Homo sapiens, T47D, breast cancer, one dose 10 μM, read-out: Growth Inhibition Percentage (GI %)
M14 = test: NCI-60 anticancer screening (SRB); format: cell-based; conditions: Homo sapiens; M14, melanoma; one dose 10 μM; read-out: Growth Inhibition Percentage (GI %)
EGFR^T790M = EGFR^T790M (Homo sapiens, UniProt P00533, T790M); test: biochemical
EGFR^T790M, sequence (P00533 25-1210 T790M): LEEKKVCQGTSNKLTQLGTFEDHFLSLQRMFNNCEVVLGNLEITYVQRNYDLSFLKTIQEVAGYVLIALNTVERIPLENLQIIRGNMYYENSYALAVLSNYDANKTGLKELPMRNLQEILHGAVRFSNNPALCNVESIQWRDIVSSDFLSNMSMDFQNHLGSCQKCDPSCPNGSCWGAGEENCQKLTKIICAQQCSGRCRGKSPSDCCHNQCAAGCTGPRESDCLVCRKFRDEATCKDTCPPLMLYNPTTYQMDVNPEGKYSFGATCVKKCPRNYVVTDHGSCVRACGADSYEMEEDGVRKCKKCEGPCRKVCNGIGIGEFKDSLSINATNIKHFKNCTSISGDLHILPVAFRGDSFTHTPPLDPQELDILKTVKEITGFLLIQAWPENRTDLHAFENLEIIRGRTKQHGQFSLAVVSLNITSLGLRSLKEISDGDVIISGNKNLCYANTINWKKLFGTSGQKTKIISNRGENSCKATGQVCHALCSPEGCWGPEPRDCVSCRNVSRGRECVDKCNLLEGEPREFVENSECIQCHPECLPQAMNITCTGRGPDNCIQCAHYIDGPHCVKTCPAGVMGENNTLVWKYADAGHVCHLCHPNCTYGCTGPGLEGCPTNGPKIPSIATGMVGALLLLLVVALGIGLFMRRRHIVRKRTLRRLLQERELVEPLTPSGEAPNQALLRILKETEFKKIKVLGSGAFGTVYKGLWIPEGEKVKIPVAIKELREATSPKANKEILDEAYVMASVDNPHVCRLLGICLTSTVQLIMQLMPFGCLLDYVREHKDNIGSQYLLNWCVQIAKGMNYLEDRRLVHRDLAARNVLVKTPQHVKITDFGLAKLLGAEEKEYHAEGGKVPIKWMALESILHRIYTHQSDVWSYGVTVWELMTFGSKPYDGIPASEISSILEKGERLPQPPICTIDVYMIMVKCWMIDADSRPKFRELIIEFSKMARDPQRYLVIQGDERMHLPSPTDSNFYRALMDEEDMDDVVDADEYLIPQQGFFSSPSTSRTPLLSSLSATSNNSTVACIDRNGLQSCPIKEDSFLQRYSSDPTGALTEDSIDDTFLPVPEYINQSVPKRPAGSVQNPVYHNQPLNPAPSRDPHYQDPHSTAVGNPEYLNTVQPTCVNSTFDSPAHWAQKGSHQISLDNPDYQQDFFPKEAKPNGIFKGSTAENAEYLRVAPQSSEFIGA

SF-295 = test: NCI-60 anticancer screening (SRB); format: cell-based; conditions: Homo sapiens; SF-295, CNS cancer; one dose 10 μM; read-out: Growth Inhibition Percentage (GI %)
K-562 = test: NCI-60 anticancer screening (SRB); format: cell-based; conditions: Homo sapiens, K562; K-562, leukemia; one dose 10 μM; read-out: Growth Inhibition Percentage (GI %)
SK-OV-3 = test: NCI-60 anticancer screening (SRB); format: cell-based; conditions: Homo sapiens; SK-OV-3, ovarian cancer; one dose 10 μM; read-out: Growth Inhibition Percentage (GI %)
ACHN = test: NCI-60 anticancer screening (SRB); format: cell-based; conditions: Homo sapiens, renal cancer, one dose 10 μM, read-out: Growth Inhibition Percentage (GI %)
A498 = test: NCI-60 anticancer screening (SRB); format: cell-based; conditions: Homo sapiens; A498, renal cancer; one dose 10 μM; read-out: Growth Inhibition Percentage (GI %)
HT29 = test: NCI-60 anticancer screening (SRB); format: cell-based; conditions: Homo sapiens, HT-29; HT29, colon cancer; one dose 10 μM; read-out: Growth Inhibition Percentage (GI %)
HS 578T = test: NCI-60 anticancer screening (SRB); format: cell-based; conditions: Homo sapiens; HS 578T, breast cancer; one dose 10 μM; read-out: Growth Inhibition Percentage (GI %)
PC-3 = test: NCI-60 anticancer screening (SRB); format: cell-based; conditions: Homo sapiens; PC-3, prostate cancer; one dose 10 μM; read-out: Growth Inhibition Percentage (GI %)
UACC-62 = test: NCI-60 anticancer screening (SRB); format: cell-based; conditions: Homo sapiens; UACC-62, melanoma; one dose 10 μM; read-out: Growth Inhibition Percentage (GI %)

EGFR^L858R, sequence (P00533 25-1210 L858R): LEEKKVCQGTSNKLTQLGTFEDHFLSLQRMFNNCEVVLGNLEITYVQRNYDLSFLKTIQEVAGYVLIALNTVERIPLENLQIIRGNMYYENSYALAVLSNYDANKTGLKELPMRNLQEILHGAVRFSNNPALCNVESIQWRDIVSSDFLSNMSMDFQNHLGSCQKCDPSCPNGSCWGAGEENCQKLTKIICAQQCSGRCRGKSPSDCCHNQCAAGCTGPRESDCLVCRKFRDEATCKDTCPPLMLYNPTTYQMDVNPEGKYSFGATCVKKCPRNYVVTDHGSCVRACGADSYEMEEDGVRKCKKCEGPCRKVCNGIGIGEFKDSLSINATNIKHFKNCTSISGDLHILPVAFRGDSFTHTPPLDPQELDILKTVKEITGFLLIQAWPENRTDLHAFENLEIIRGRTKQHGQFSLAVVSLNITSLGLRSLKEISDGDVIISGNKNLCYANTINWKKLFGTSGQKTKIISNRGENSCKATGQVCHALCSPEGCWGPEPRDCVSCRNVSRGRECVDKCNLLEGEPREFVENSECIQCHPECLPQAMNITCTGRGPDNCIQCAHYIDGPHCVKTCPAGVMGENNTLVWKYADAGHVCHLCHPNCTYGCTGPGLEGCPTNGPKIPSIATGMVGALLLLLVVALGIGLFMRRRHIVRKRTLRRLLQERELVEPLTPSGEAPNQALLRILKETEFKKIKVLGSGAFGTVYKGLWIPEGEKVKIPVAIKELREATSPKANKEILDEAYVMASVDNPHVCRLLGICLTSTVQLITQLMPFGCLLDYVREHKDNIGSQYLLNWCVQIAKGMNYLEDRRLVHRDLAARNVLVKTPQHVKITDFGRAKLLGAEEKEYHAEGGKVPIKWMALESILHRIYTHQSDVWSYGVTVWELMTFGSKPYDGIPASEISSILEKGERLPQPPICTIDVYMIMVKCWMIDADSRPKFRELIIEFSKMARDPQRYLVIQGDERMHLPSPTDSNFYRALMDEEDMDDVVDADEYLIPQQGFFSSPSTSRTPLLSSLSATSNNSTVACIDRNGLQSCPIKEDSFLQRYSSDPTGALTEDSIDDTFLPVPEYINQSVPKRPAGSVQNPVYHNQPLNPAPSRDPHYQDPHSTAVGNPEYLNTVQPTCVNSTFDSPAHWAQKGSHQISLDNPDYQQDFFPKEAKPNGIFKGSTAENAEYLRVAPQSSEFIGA

With `CCOC(=O)C1=C(N)N(c2ccc(Cl)cc2)C2=C(C(=O)CC(C)(C)C2)C1c1cccc(Cl)c1Cl` (racemic) [10b, (±)-Ethyl 2-amino-1–(4-chorophenyl)-4–(2,3-dichlorophenyl)-7,7-dimethyl-5-oxo-1-phenyl-1,4,5,6,7,8-hexahydroquinoline-3-carboxylate] the IC50 (EGFR^L858R) was 878 ± 6 nM, the inhibition at 10 µM (SK-MEL-28) was 16% and the inhibition at 10 µM (SF-268) was 22%. For the same compound, the inhibition at 10 µM (LOX IMVI) was less than 10%, the inhibition at 10 µM (RPMI-8226) was 73% and the inhibition at 10 µM (SW-620) was less than 10%. It also gave an inhibition at 10 µM (SF-539) of 22%, an inhibition at 10 µM (NCI-H460) of 53% and an inhibition at 10 µM (RXF 393) of 27%. For the same compound, the inhibition at 10 µM (HOP-92) was 30%, the inhibition at 10 µM (OVCAR-4) was 28% and the IC50 (EGFR^WT) was 205 ± 90 nM. It also gave an inhibition at 10 µM (SN 12C) of 35%, an inhibition at 10 µM (HCT-116) of 71% and an inhibition at 10 µM (CCRF-CEM) of 64%. The inhibition at 10 µM (TK-10) was less than 10%, the inhibition at 10 µM (SK-MEL-5) was 40% and the inhibition at 10 µM (MCF7) was 52%. For the same compound, the inhibition at 10 µM (SR) was 66%, the inhibition at 10 µM (T-47D) was 41% and the inhibition at 10 µM (M14) was 16%. The IC50 (EGFR^T790M) was 954 ± 8 nM, the inhibition at 10 µM (SF-295) was 26% and the inhibition at 10 µM (K-562) was 71%. It also gave an inhibition at 10 µM (SK-OV-3) of 13%, an inhibition at 10 µM (ACHN) of 54% and an inhibition at 10 µM (A498) of less than 10%. For the same compound, the inhibition at 10 µM (HT29) was 32%, the inhibition at 10 µM (HS 578T) was less than 10% and the inhibition at 10 µM (PC-3) was 76%. For the same compound, the inhibition at 10 µM (UACC-62) was 34%.
